Measurements from patent US20100267561A1, “HERBICIDAL PYRIDAZINONE DERIVATIVES” (priority 2007, published 2010).

How the values were obtained:
Test in all cases: Test B pre-/postemergence plant response
Type in all cases: in vivo
[1] = tested on: catchweed bedstraw (Galium aparine); conditions: Preemergence
In short: (§1)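 Seeds were sown and sprayed preemergence, while plants at 2 to 18 cm (1- to 4-leaf stage) got postemergence sprays. Compounds were formulated in a non-phytotoxic solvent mixture with surfactant. After 13 to 15 days in a greenhouse, injury was rated visually against untreated controls, 0 (no effect) to 100 (complete control).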

[2] = tested on: downy bromegrass (Bromus tectorum); conditions: for Bromegrass, Downy plant response rating: 8 g ai/ha
In short: as §1

[3] = tested on: surinam grass (Brachiaria decumbens); conditions: for Surinam Grass plant response rating: 8 g ai/ha
In short: as §1

[4] = tested on: blackgrass (Alopecurus myosuroides); conditions: for Blackgrass plant response rating: 8 g ai/ha
In short: as §1

[5] = tested on: wheat (Triticum aestivum); conditions: for Wheat plant response rating: 8 g ai/ha
In short: as §1

[6] = tested on: lambsquarters (Chenopodium album); conditions: for Lambsquarters plant response rating: 8 g ai/ha
In short: as §1

[7] = tested on: kochia (Kochia scoparia); conditions: for Kochia plant response rating: 8 g ai/ha
In short: as §1

[8] = tested on: morningglory (Ipomoea coccinea); conditions: for Morningglory plant response rating: 8 g ai/ha
In short: as §1

[9] = tested on: soybean (Glycine max); conditions: for Soybean plant response rating: 8 g ai/ha
In short: as §1

[10] = tested on: Russian thistle (Salsola iberica); conditions: Preemergence
In short: as §1

[11] = tested on: corn (Zea mays); conditions: for Corn plant response rating: 8 g ai/ha
In short: as §1

[12] = tested on: cocklebur (Xanthium strumarium); conditions: for Cocklebur plant response rating: 8 g ai/ha
In short: as §1

[13] = tested on: bermudagrass (Cynodon dactylon); conditions: for Bermudagrass plant response rating: 8 g ai/ha
In short: as §1

[14] = tested on: yellow nutsedge (Cyperus esculentus); conditions: for Nutsedge, Yellow plant response rating: 8 g ai/ha
In short: as §1

[15] = 16 g ai/ha, scale 0 to 100 (0 no effect, 100 complete control)
[16] = Postemergence, 16 g ai/ha, scale 0 to 100
[17] = Postemergence, 31 g ai/ha, scale 0 to 100
[18] = Postemergence, 62 g ai/ha, scale 0 to 100, 0 no effect, 100 complete control
[19] = Preemergence, 16 g ai/ha, scale 0 to 100 (0 no effect, 100 complete control)
[20] = Preemergence, 31 g ai/ha, 0 to 100 scale, 0 no effect, 100 complete control
[21] = Preemergence, 62 g ai/ha, scale 0 to 100
[22] = Preemergence, 31 g ai/ha, scale 0 to 100 (0 no effect, 100 complete control)
[23] = Preemergence, 62 g ai/ha, 0 to 100 scale, 0 no effect, 100 complete control

Cc1cc(-c2ccc(Cl)cc2)nn1-c1c(OC(=O)c2ccccc2)cnn(C)c1=O [Compound 48]
Plant response rating, Galium [1, 15]: 0 | Plant response rating, Galium ([1]; 31 g ai/ha, 0 to 100 scale, 0 no effect, 100 complete control): 0 | Bromegrass, Downy plant response rating ([2]; postemergence, 0-100 scale): 5 | Plant response rating, Bromegrass, Downy [2, 16]: 50 | Plant response rating, Bromegrass, Downy [2, 17]: 60 | Plant response rating, Bromegrass, Downy [2, 18]: 90 | Plant response rating, Bromegrass, Downy [2, 19]: 0 | Plant response rating, Bromegrass, Downy [2, 20]: 70 | Plant response rating, Bromegrass, Downy [2, 21]: 80 | Bromegrass, Downy plant response rating ([2]; Preemergence, scale 0 to 100): 0 | Surinam Grass plant response rating ([3]; postemergence, 0-100 scale): 75 | Plant response rating, Surinam Grass [3, 16]: 90 | Plant response rating, Surinam Grass [3, 17]: 100 | Plant response rating, Surinam Grass [3, 18]: 100 | Plant response rating, Surinam Grass [3, 19]: 40 | Plant response rating, Surinam Grass [3, 22]: 65 | Plant response rating, Surinam Grass [3, 23]: 75 | Surinam Grass plant response rating ([3]; Preemergence, scale 0 to 100): 0 | Blackgrass plant response rating ([4]; postemergence, 0-100 scale): 40 | Plant response rating, Blackgrass [4, 16]: 85 | Plant response rating, Blackgrass [4, 17]: 85 | Plant response rating, Blackgrass [4, 18]: 95 | Plant response rating, Blackgrass [4, 19]: 90 | Plant response rating, Blackgrass [4, 20]: 90 | Plant response rating, Blackgrass [4, 21]: 100 | Blackgrass plant response rating ([4]; Preemergence, scale 0 to 100): 80 | Wheat plant response rating ([5]; postemergence, 0-100 scale): 0 | Plant response rating, Wheat [5, 16]: 50 | Plant response rating, Wheat [5, 17]: 95 | Plant response rating, Wheat [5, 18]: 98 | Plant response rating, Wheat [5, 19]: 0 | Plant response rating, Wheat [5, 22]: 5 | Plant response rating, Wheat [5, 23]: 60 | Wheat plant response rating ([5]; Preemergence, scale 0 to 100): 0 | Lambsquarters plant response rating ([6]; postemergence, 0-100 scale): 0 | Plant response rating, Lambsquarters [6, 16]: 0 | Plant response rating, Lambsquarters [6, 17]: 0 | Plant response rating, Lambsquarters [6, 18]: 0 | Plant response rating, Lambsquarters [6, 19]: 0 | Plant response rating, Lambsquarters [6, 20]: 0 | Plant response rating, Lambsquarters [6, 21]: 0 | Lambsquarters plant response rating ([6]; Preemergence, scale 0 to 100): 0 | Kochia plant response rating ([7]; postemergence, 0-100 scale): 0 | Plant response rating, Kochia [7, 16]: 0 | Plant response rating, Kochia [7, 17]: 0 | Plant response rating, Kochia [7, 18]: 0 | Plant response rating, Kochia [7, 19]: 0 | Plant response rating, Kochia [7, 20]: 0 | Plant response rating, Kochia [7, 21]: 0 | Kochia plant response rating ([7]; Preemergence, scale 0 to 100): 0 | Morningglory plant response rating ([8]; postemergence, 0-100 scale): 0 | Plant response rating, Morningglory [8, 16]: 0 | Plant response rating, Morningglory [8, 17]: 0 | Plant response rating, Morningglory [8, 18]: 0 | Plant response rating, Morningglory [8, 19]: 0 | Plant response rating, Morningglory [8, 22]: 0 | Plant response rating, Morningglory [8, 21]: 0 | Morningglory plant response rating ([8]; Preemergence, scale 0 to 100): 0 | Soybean plant response rating ([9]; postemergence, 0-100 scale): 0 | Plant response rating, Soybean [9, 16]: 0 | Plant response rating, Soybean [9, 17]: 0 | Plant response rating, Soybean [9, 18]: 0 | Plant response rating, Soybean [9, 19]: 0 | Plant response rating, Soybean [9, 22]: 0 | Plant response rating, Soybean [9, 21]: 0 | Soybean plant response rating ([9]; Preemergence, scale 0 to 100): 0 | Plant response rating, Russian Thistle [10, 15]: 0 | Plant response rating, Russian Thistle ([10]; 31 g ai/ha, scale 0 to 100 (0 no effect, 100 complete control)): 0 | Plant response rating, Russian Thistle ([10]; 62 g ai/ha, scale 0 to 100): 0 | Russian Thistle plant response rating ([10]; 8 g ai/ha, scale 0 to 100): 0 | Corn plant response rating ([11]; postemergence, 0-100 scale): 90 | Plant response rating, Corn [11, 16]: 95 | Plant response rating, Corn [11, 17]: 100 | Plant response rating, Corn [11, 18]: 100 | Plant response rating, Corn [11, 19]: 55 | Plant response rating, Corn [11, 20]: 70 | Plant response rating, Corn [11, 21]: 75 | Corn plant response rating ([11]; Preemergence, scale 0 to 100): 15 | Cocklebur plant response rating ([12]; postemergence, 0-100 scale): 0 | Plant response rating, Cocklebur [12, 16]: 0 | Plant response rating, Cocklebur [12, 17]: 0 | Plant response rating, Cocklebur [12, 18]: 0 | Plant response rating, Cocklebur [12, 19]: 0 | Plant response rating, Cocklebur [12, 20]: 0 | Plant response rating, Cocklebur [12, 21]: 0 | Cocklebur plant response rating ([12]; Preemergence, scale 0 to 100): 0 | Bermudagrass plant response rating ([13]; postemergence, 0-100 scale): 65 | Plant response rating, Bermudagrass [13, 16]: 98 | Plant response rating, Bermudagrass [13, 17]: 100 | Plant response rating, Bermudagrass [13, 18]: 100 | Bermudagrass plant response rating ([13]; Preemergence, scale 0 to 100 (0 no effect, 100 complete control)): 0 | Plant response rating, Bermudagrass [13, 19]: 0 | Plant response rating, Bermudagrass [13, 20]: 0 | Plant response rating, Bermudagrass [13, 21]: 0 | Nutsedge, Yellow plant response rating ([14]; postemergence, 0-100 scale): 0 | Plant response rating, Nutsedge, Yellow [14, 16]: 0 | Plant response rating, Nutsedge, Yellow [14, 17]: 0 | Plant response rating, Nutsedge, Yellow [14, 18]: 0 | Plant response rating, Nutsedge, Yellow [14, 19]: 0 | Plant response rating, Nutsedge, Yellow [14, 22]: 0 | Plant response rating, Nutsedge, Yellow [14, 21]: 0 | Nutsedge, Yellow plant response rating ([14]; Preemergence, scale 0 to 100): 0
